Source: BindingDB's records for doi:10.7270/Q2D798VP (Broad Institute, 2009)

Molecular target: T1, Zinc finger protein mex-5 (Caenorhabditis elegans, UniProt Q9XUB2)
T1 sequence (Q9XUB2 whole entry): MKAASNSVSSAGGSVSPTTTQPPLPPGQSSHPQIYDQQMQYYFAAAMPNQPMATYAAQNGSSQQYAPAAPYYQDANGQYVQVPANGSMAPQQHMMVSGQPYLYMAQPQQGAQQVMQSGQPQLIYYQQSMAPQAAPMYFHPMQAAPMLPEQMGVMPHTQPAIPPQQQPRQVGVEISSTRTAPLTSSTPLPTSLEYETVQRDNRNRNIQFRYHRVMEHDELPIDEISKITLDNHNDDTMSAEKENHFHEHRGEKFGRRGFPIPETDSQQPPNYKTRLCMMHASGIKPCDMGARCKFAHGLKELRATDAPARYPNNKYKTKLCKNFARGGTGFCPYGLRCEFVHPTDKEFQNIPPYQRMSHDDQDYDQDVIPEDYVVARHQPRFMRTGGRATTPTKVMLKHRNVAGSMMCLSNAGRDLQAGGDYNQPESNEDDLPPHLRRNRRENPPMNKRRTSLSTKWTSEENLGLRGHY
Assay: MEX-5/TCR-2 RNA interaction inhibitors, dose response, biochemical, C. elegans, fluorescence polarization (AID 1960)

SMILES | EC50 [µM]
C=CCSc1nnc(N2C(=O)C(=O)C(C(=O)c3ccco3)C2c2ccc(F)cc2)s1 (centres undefined) [1-[5-(allylthio)-1,3,4-thiadiazol-2-yl]-5-(4-fluorophenyl)-4-(2-furoyl)-3-hydroxy-3-pyrrolin-2-one] | 87.6
C=c1c(C(=O)OC)c(O)c(=Cc2ccco2)n1-c1ccccc1 [MLS000780287] | 5.06
O=C1C(=O)N(c2ncccn2)C(c2cccs2)C1C(=O)c1ccco1 (centres undefined) [3-(furan-2-carbonyl)-4-hydroxy-1-pyrimidin-2-yl-2-thiophen-2-yl-2H-pyrrol-5-one] | 31.5
Cc1c(C(=O)NN=Cc2ccco2)[nH][nH]c1=O | > 300
CSc1nnc(N2C(=O)C(=O)C(C(=O)c3ccco3)C2c2ccc(F)cc2)s1 (centres undefined) [2-(4-fluorophenyl)-3-(furan-2-carbonyl)-4-hydroxy-1-(5-methylsulfanyl-1,3,4-thiadiazol-2-yl)-2H-pyrrol-5-one] | 82.8
CN(C)[C@@H]1C(=O)C(C(N)=O)C(=O)[C@@]2(O)C(=O)C3C(=O)c4c(O)cccc4[C@@](C)(O)[C@H]3[C@H](O)[C@@H]12 (stereo partly drawn) [(2E,4S,4aR,5S,5aR,6S,12aS)-2-[azanyl(oxidanyl)methylidene]-4-(dimethylamino)-6-methyl-5,6,10,11,12a-pentakis(oxidanyl)-4,4a,5,5a-tetrahydrotetracene-1,3,12-trione] | 29.9
Cc1ccc(CN=Nc2ncnc3nc[nH]c23)cc1 [MLS000419179] | > 300
CCCCOc1c(Br)cc(CN=O)cc1OCC [3-bromo-4-butoxy-5-ethoxy-benzaldoxime] | > 300
O=C1C(=Nc2ccccc2O)C(Cl)C(=O)N1c1ccccc1 (centres undefined) [3-Chloro-4-(2-hydroxy-phenylamino)-1-phenyl-pyrrole-2,5-dione] | 73
O=C(Cc1nc2cc(Cl)ccc2oc1=O)c1cccs1 [(3Z)-6-chloranyl-3-(2-oxidanylidene-2-thiophen-2-yl-ethylidene)-4H-1,4-benzoxazin-2-one] | 153
Cc1[nH]n(C(N)=S)c(=O)c1N=Nc1cccc(C(=O)O)c1 [3-[(1-carbamothioyl-3-methyl-5-oxo-4H-pyrazol-4-yl)diazenyl]benzoic acid] | 22.7
COc1ccc(C2C(C(=O)c3ccco3)C(=O)C(=O)N2c2nnc(C)s2)cc1 (centres undefined) [3-(furan-2-carbonyl)-4-hydroxy-2-(4-methoxyphenyl)-1-(5-methyl-1,3,4-thiadiazol-2-yl)-2H-pyrrol-5-one] | 216
O=C1C=C(NNC(=O)c2sc3ccccc3c2Cl)CCC1 [3-chloranyl-N-[(3-oxidanylidenecyclohexylidene)amino]-1-benzothiophene-2-carboxamide] | 20.5
O=C(CC(=O)c1ccccc1)C(=O)NNC(=O)c1ccccc1[N+](=O)[O-] [2-Nitro-benzoic acid N'-(2-hydroxy-4-oxo-4-phenyl-but-2-enoyl)-hydrazide] | 1.11
CCCCCCN1C(=O)NC(=O)C(=CNCCCn2ccnc2)C1=O [(5E)-1-hexyl-5-[[3-(1-imidazolyl)propylamino]methylidene]-1,3-diazinane-2,4,6-trione] | > 300
Cc1cccc(NNC2=c3cc(Br)ccc3=NC2=O)c1 [5-bromo-3-[2-(3-methylphenyl)hydrazinyl]indol-2-one] | 26.9
O=C1C=CC(/C=C/c2nc(O)c([N+](=O)[O-])c(=O)[nH]2)C=C1O (centres undefined) [SMR000524347] | 179
CCN(CC)CCNC=C1C(=O)NC(=O)N(CCc2ccccc2)C1=O [(5E)-5-[[2-(diethylamino)ethylamino]methylene]-1-phenethyl-barbituric acid] | > 300
O=C(c1ccccc1)c1[nH]n(-c2ccccc2)c2c(O)n(-c3ccccc3Cl)c(=O)c1-2 [SMR000212371] | > 300
CSc1nnc(N2C(=O)C(=O)C(C(=O)c3ccco3)C2c2cccc(Cl)c2)s1 (centres undefined) [2-(3-chlorophenyl)-3-(furan-2-carbonyl)-4-hydroxy-1-(5-methylsulfanyl-1,3,4-thiadiazol-2-yl)-2H-pyrrol-5-one] | 14.3
O=C1NC(=O)N(Cc2ccccc2Cl)C(=O)C1=CNc1ccc(F)cc1 [(5E)-1-(2-chlorobenzyl)-5-[(4-fluoroanilino)methylene]barbituric acid] | > 300
Cc1cccc(Nc2nc(O)cs2)c1 [2-(3-methylanilino)-1,3-thiazol-4-one] | > 300

SMILES | EC50 [µM]
COc1ccc(C(=O)CC2=NCC3c4ccccc4CCN3C2=O)cc1 (centres undefined) [(3Z)-3-[2-(4-methoxyphenyl)-2-oxidanylidene-ethylidene]-2,6,7,11b-tetrahydro-1H-pyrazino[2,1-a]isoquinolin-4-one] | > 300
N#CC(C(=O)c1cc2ccccc2o1)c1nc2ccccc2s1 (centres undefined) [(2Z)-3-(1-benzofuran-2-yl)-2-(3H-1,3-benzothiazol-2-ylidene)-3-oxidanylidene-propanenitrile] | > 300
Cn1cc(C=C2C(=O)NC(=O)N(c3ccccc3)C2=O)c2ccccc21 [SMR000559087] | 4.34
CSc1nnc(N2C(=O)C(=O)C(C(=O)c3ccco3)C2c2ccccc2)s1 (centres undefined) [3-(furan-2-carbonyl)-4-hydroxy-1-(5-methylsulfanyl-1,3,4-thiadiazol-2-yl)-2-phenyl-2H-pyrrol-5-one] | 76.6
CC1(C)CC(=O)C2=C(C1)OC(=N)C(C#N)C2c1cccc(OC(=O)c2ccco2)c1 (centres undefined) [2-furancarboxylic acid [3-(2-amino-3-cyano-7,7-dimethyl-5-oxo-6,8-dihydro-4H-1-benzopyran-4-yl)phenyl] ester] | > 300
O=C1C([N+](=O)[O-])=CC(Cl)=CC1/C=N/NC(=O)C(O)(c1ccccc1)c1ccccc1 (centres undefined) [N''''-[(E)-(3-chloro-5-nitro-6-oxocyclohexa-2,4-dien-1-ylidene)methyl]-2-hydroxy-2,2-diphenylacetohydrazide] | 40.2
O=C(O)c1ccc(NN=CC2=C(N3CCOCC3)C(=Cc3ccccc3)CC2)cc1 [4-[2-[[(3Z)-2-(4-morpholinyl)-3-(phenylmethylene)-1-cyclopentenyl]methylidene]hydrazinyl]benzoic acid] | 109
O=C1NC(=O)N(CCc2ccccc2)C(=O)C1=CNNC(=O)c1ccncc1 [N'-[(E)-[2,4,6-trioxo-1-(2-phenylethyl)-1,3-diazinan-5-ylidene]methyl]-4-pyridinecarbohydrazide] | > 300
CC(C)(C)OC(=O)N1CCC2=C(C#N)C(=N)C(C#N)(C#N)[C@H](c3cccnc3)[C@H]2C1 [(8S,8aR)-6-amino-5,7,7-tricyano-8-(3-pyridinyl)-1,3,8,8a-tetrahydroisoquinoline-2-carboxylic acid tert-butyl ester] | 54
COc1cc(C2C3=C(CC(C)(C)CC3=O)OC(=N)C2C#N)ccc1OCCN1CCOCC1 (centres undefined) [MLS000779948] | > 300
Cc1ccc(-c2c(CCC(C)N=O)oc3ccc(Cl)cc23)o1 (centres undefined) [4-[5-chloro-3-(5-methyl-2-furanyl)-2-benzofuranyl]-2-butanone oxime] | > 300
COc1ccc(C2C3=C(CCCC3=O)OC(=N)C2C#N)c(OC)c1OC (centres undefined) [2-Amino-5-oxo-4-(2,3,4-trimethoxy-phenyl)-5,6,7,8-tetrahydro-4H-chromene-3-carbonitrile] | > 300
C[C@@H]1O[C@@H](O[C@@H]2[C@@H](O)[C@H](OCCc3ccc(O)c(O)c3)O[C@H](CO)[C@H]2OC(=O)/C=C/c2ccc(O)c(O)c2)[C@H](O)[C@H](O)[C@H]1O [((2R,3R,4R,5R,6R)-6-(3,4-dihydroxyphenethoxy)-5-hydroxy-2-(hydroxymethyl)-4-((2S,3R,4R,5R,6S)-3,4,5-trihydroxy-6-methyltetrahydro-2H-pyran-2-yloxy)tetrahydro-2H-pyran-3-yl) 3-(3,4-dihydroxyphenyl)acrylate] | 9.83
COc1ccc(C2C3=C(CCCC3=O)OC(=N)C2C#N)cc1OC (centres undefined) [2-amino-4-(3,4-dimethoxyphenyl)-5-keto-4,6,7,8-tetrahydrochromene-3-carbonitrile] | > 300
COC(=O)Cn1cc(C=C2C(=O)NC(=O)N(c3ccccc3)C2=O)c2ccccc21 [[3-(2,4,6-Trioxo-1-phenyl-tetrahydro-pyrimidin-5-ylidenemethyl)-indol-1-yl]-acetic acid methyl ester] | 143
Cc1ccc(NNC2=Nc3ccccc3C2=O)cc1 [2-[(4-methylphenyl)hydrazo]-3-indolone] | 25.7
COc1ccc(C2C3=C(CC(C)(C)CC3=O)OC(=N)C2C#N)c(OC)c1OC (centres undefined) [2-amino-5-keto-7,7-dimethyl-4-(2,3,4-trimethoxyphenyl)-6,8-dihydro-4H-chromene-3-carbonitrile] | > 300
CN(C)CCCNC=C1C(=O)NC(=O)N(CCc2ccc(F)cc2)C1=O [(5E)-5-[[3-(dimethylamino)propylamino]methylene]-1-[2-(4-fluorophenyl)ethyl]barbituric acid] | > 300
CC1(C)CC(=O)C2=C(C1)OC(=N)C(C#N)C2c1ccc(OC(=O)N2CCOCC2)cc1 (centres undefined) [4-morpholinecarboxylic acid [4-(2-amino-3-cyano-7,7-dimethyl-5-oxo-6,8-dihydro-4H-1-benzopyran-4-yl)phenyl] ester] | > 300
CCOc1cccc(C2C(C(=O)c3ccc(C)o3)C(=O)C(=O)N2c2nccs2)c1 (centres undefined) [2-(3-ethoxyphenyl)-3-(5-methylfuran-2-yl)carbonyl-4-oxidanyl-1-(1,3-thiazol-2-yl)-2H-pyrrol-5-one] | 1.27
CCOC(=O)N1CCC2=C(C#N)C(=N)C(C#N)(C#N)[C@H](c3ccsc3)[C@H]2C1 [(8R,8aR)-6-amino-5,7,7-tricyano-8-(3-thienyl)-1,3,8,8a-tetrahydroisoquinoline-2-carboxylic acid ethyl ester] | 58.7
COc1ccc(N2C(=O)C(=Nc3ccccc3O)C(Cl)C2=O)cc1 (centres undefined) [3-Chloro-4-(2-hydroxy-phenylamino)-1-(4-methoxy-phenyl)-pyrrole-2,5-dione] | 24.5
